Reference: patent publication US12384751B2, “Allosteric activators of the ALPHA1A-adrenergic receptor” (The Cleveland Clinic Foundation, priority 2019, dated 2025)
Entries after “also recorded” stand apart in the source; their conditions may differ.

Tests used:
[1] = target: T1, α1A-AR (Homo sapiens, UniProt P35348); experiment: cAMP assay at α1A-AR; type: cell-based; set-up: expressed in transfected cells; host or cells: Rat-1 fibroblast cells; conditions: for effect on epinephrine-mediated cAMP response at the α1A-AR: 10^−5M to 10^−7M of compound; for effect on norepinephrine-mediated cAMP response at the α1A-AR: 10^−5M to 10^−9M of compound
T1 sequence (P35348 1-466): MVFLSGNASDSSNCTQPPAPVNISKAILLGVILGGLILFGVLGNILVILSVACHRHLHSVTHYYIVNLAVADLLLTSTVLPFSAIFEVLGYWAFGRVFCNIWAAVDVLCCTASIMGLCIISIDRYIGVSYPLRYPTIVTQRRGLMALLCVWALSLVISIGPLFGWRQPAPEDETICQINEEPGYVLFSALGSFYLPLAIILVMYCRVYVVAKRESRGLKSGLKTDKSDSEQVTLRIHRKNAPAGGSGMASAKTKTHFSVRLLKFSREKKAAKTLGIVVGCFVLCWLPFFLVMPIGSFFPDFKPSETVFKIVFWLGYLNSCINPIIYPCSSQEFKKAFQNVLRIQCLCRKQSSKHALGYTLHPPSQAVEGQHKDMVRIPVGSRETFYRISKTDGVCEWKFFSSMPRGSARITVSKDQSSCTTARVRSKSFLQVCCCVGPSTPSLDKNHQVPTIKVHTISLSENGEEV
Experimental: cAMP assay: Cells expressing a single α1-adrenergic receptor subtype are washed and re-plated into 24-well plates in DMEM media without serum at approximately 2.4×10^4 cells/well. Cells are allowed to rest till the next day in a CO2 incubator at 37° C. The cells are washed twice with DMEM (no serum), then 1 ml of DMEM is added to each well. Cells are pre-incubated for 45 mins-1 hour at 37° C. in a CO2 incubator with 10 uM propranolol, followed by 100 uM IBMX for 30 minutes. Final DMSO concentration is at 0.05%. Norepinephrine or epinephrine is added in a dose response (1 dose per well) in addition to one of the Compounds 1-10 at one concentration (i.e. 10^−5M). Cells are incubated for another 30 mins at 37° C. in a CO2 incubator. The reaction is concluded by aspirating the media and adding 0.1M HCL. The mixture is incubated for 20 mins at room temperature. The cells are scraped and suspended until homogenous. The mixture is centrifuged at 1000 g for 10 mins and the supernatant assayed the same day according to a manufacturer's cAMP kit (Cayman Select Cyclic AMP EIA kit #501040).

[2] = target: T1, α1A-AR; experiment: Competition binding with [125I]HEAT at α1A-AR (Rat-1 fibroblast membranes); set-up: expressed in transfected cells; host or cells: Rat-1 fibroblast cells
Experimental: Competition binding assays: […] Assays were performed in duplicate in HEM buffer, in a total assay volume of 1000 μl. […] The above conditions will convert all the conformations of the receptor into a single low affinity site. To show both high and low affinity sites of the receptor (typically seen with GPCR agonists), the GTP is removed from the binding buffer. Nonspecific binding was determined experimentally in the presence of 10^−4 M phentolamine. Unbound radioactivity was separated from membrane-bound radioactivity by filtration through Whatman GF/C filter paper. Filters are washed five times with 5 ml of cold HEM buffer containing 0.5 mMGTP (if added to the binding buffer but not if it was not added to the binding buffer). Bound radioactivity remaining on the filters was counted on an ICN gamma counter operating at 79.8% efficiency. Data are analyzed using Graphpad Prism.

[3] = target: T1, α1A-AR; experiment: Total inositol phosphate assay at α1A-AR; type: cell-based; set-up: expressed in transfected cells; host or cells: Rat-1 fibroblast cells; conditions: for stimulation of inositol phosphate / agonist activity by the compound by itself: compound alone
Experimental: Total Inositol Phosphate assay: Cells expressing a single α1-adrenergic receptor subtypes are washed and re-plated into 6-well plates containing DMEM media at approximately 5×10^5 cells/well. Cells are allowed to rest till the next day in a CO2 incubator at 37° C. The cells are washed twice with DMEM (no serum), then 2 ml of DMEM is added to each well. 2 ul of ^3H-inositol (at 1 uCi/mL, Perkin-Elmer NET 114 005MC) and 10 mM LiCl is added to each well. The cells are incubated for 1 hour at 37° C. in a CO2 incubator. […] The cells are incubated again for 1 hour at 37° C. in a CO2 incubator. The media is aspirated and 1 mL of ice-cold 0.4M perchloric acid is added. The cells are scraped, transferred to a vial, then 1 mL 0.72M KOH/0.6M KHCO3 is added, the tube vortexed and the contents centrifuged at 2000 rpm for 10 mins. The supernatant is removed and applied to BioRad polyprep columns packed with 1 mL of AG1-X8 resin (BioRad AG1-X8 resin 100-200 mesh #140-1444) in 0.1M formic acid in a holding tray which is over a plastic catch tray. The supernatant is allowed to naturally drip through the column then washed with 8 ml of 0.1M formic acid (2 ml at a time). The columns are transferred via the holding tray to a box of 20 ml scintillation vials so that the columns drip directly into the vials. Total inositol phosphates are eluted off the column with 2 ml of 0.1M formic acid/1M ammonium formate. The columns are eluted a second time into a new scintillation vial with another 2 ml of 0.1M formic acid/1M ammonium formate. 18 ml of Ecoscint A is added to each scintillation vial and vortexed. The vials are allowed to dark adapt overnight at room temperature to reduce autofluorescence. The vials are counted in a scintillation counter on the tritium channel and the cpms from the first and second fractions eluted off the columns are added together.

[4] = target: T1, α1A-AR; experiment: Effect of compound on binding affinity of norepinephrine, epinephrine or other ligands at α1A-AR; set-up: expressed in transfected cells; host or cells: Rat-1 fibroblast cells; conditions: for effect on binding affinity of epinephrine at the α1A-AR: 10^−5M (highest dose tested); for effect on binding affinity of norepinephrine at the α1A-AR: fixed dose of compound, 10^−5M to 10^−9M
Experimental: Competition binding assays: These compounds were characterized for their ligand binding properties at the α1-AR subtypes. The binding affinities of Compounds 1-10 were determined in a series of competition-binding experiments with the α1-AR-selective antagonist [^125I]HEAT as the radioligand. Assays were performed in duplicate in HEM buffer, in a total assay volume of 1000 μl. Radioligand binding assays are composed of 5 ug of membranes, harvested from Rat-1 fibroblast cells expressing only one of the alpha1-AR subtypes, HEM buffer containing GTP (composed of 20 mM HEPES, pH 7.4, 1.4 mM EGTA, 12.5 mM MgCl2, pH to 7.4), 0.5 mM GTP, 35-80 pM^125I-HEAT, and various doses of norepinephrine or epinephrine and incubated with shaking at 25° C. for 1-2 hours. The above conditions will convert all the conformations of the receptor into a single low affinity site. To show both high and low affinity sites of the receptor (typically seen with GPCR agonists), the GTP is removed from the binding buffer. Nonspecific binding was determined experimentally in the presence of 10^−4 M phentolamine. Unbound radioactivity was separated from membrane-bound radioactivity by filtration through Whatman GF/C filter paper. Filters are washed five times with 5 ml of cold HEM buffer containing 0.5 mMGTP (if added to the binding buffer but not if it was not added to the binding buffer). Bound radioactivity remaining on the filters was counted on an ICN gamma counter operating at 79.8% efficiency. Data are analyzed using Graphpad Prism.
To determine the effects of compounds 1-10 on the binding affinity of norepinephrine or epinephrine, the competition binding assay was repeated as above with one dose of each individual compound (i.e. 10^−5M) added to each concentration point. Data are normalized to the norepinephrine or epinephrine binding curve alone without the addition of the compound to measure its effect on binding.

[5] = test system: Normal mice; conditions: cited from earlier work
[6] = target: α1-ARs; conditions: read-out: calculated Ki; cited from earlier work

Row | Structure (SMILES) | PAM activity / PAM type [1] | effect on epinephrine-mediated cAMP response at the α1A-AR [1] | effect on norepinephrine-mediated cAMP response at the α1A-AR [1] | binding behaviour against radiolabeled antagonist 125I-HEAT (full inhibition; competitive or allosteric) [2] | selectivity for the α1A-AR over the α1B-AR and α1D-AR subtypes [2] [fold] | effect on epinephrine-mediated inositol phosphate response at the α1A-AR [3] | effect on norepinephrine-mediated inositol phosphate response at the α1A-AR [3] | stimulation of inositol phosphate / agonist activity by the compound by itself [3] | effect on binding affinity of epinephrine at the α1A-AR [4] | effect on binding affinity of epinephrine at the α1A-AR ([4]; listed as Cirazoline) | effect on binding affinity of norepinephrine at the α1A-AR [4] | effect on binding affinity of norepinephrine at the α1A-AR ([4]; listed as Cirazoline) | cognition [5] | neurogenesis [5] | Ki [6] [nM]
1 | Cc1c(OCC2=NCCN2)ccc(Cl)c1NS(C)(=O)=O.Cl [RO115-1240] | no evidence of PAM activity | competitive, not PAM behavior; also recorded: shift the curve to the right to lower potency (inhibition) | antagonist at cAMP; also recorded: competitive, not PAM behavior; also recorded: shift the curve to the right to lower potency (inhibition) | competitive not allosteric behavior | 100 | competitive/noncompetitive partial agonism, not PAM behavior | competitive/noncompetitive partial agonism, not PAM behavior | weak partial agonist; also recorded: significant IP response on its own |  |  |  |  |  |  | 
2 | c1ccc(C2CC2)c(OCC2=NCCN2)c1 [cirazoline] | no evidence of PAM activity | competitive, not PAM behavior | competitive, not PAM behavior |  |  | competitive/noncompetitive partial agonism, not PAM behavior | competitive/noncompetitive partial agonism, not PAM behavior | full agonist at the IP response; also recorded: strong agonist at the IP response | totally inhibit the binding | fully inhibit | totally inhibit the binding | does not increase the affinity of norepinephrine | increased | increased | 
3 | COc1cc2nc(N3CCN(C(=O)c4ccco4)CC3)nc(N)c2cc1OC [prazosin] |  |  |  |  |  |  |  |  |  |  |  |  |  |  | 1
